The source of these data is paper PMC6369734, “Spy vs. spy: selecting the best reporter for ^19F NMR competition experiments” (Chemical Communications (Cambridge, England), 2019).

Read-outs that look alike come from different tables or passages of the source.

Assay [1] has as its target T1, VHL (VBC complex: pVHL54-213, eloB1-104, eloC17-112) (Homo sapiens, UniProt P40337).
T1 construct: equimolar complex of pVHL54-213, eloB1-104 and; made in house; host or cells: E. coli
The assay can be described thus: Surface plasmon resonance (SPR) steady-state binding to immobilised biotinylated AviVBC. On the procedure:
The KD of each compound to VHL was determined by surface plasmon resonance (SPR) experiments.
3. Protein expression, purification and biotinylation
The VHL E3 ligase is a multi-protein complex composed of five proteins: VHL protein (pVHL), elongin B (eloB), elongin C (eloC), Cullin-2 (Cul2) and Ring-box protein 1 (Rbx1).[3] Since the compounds developed in this work bind solely to the VHL protein, the VBC complex (equimolar complex of pVHL54-213, eloB1-104 and eloC17-112) was used in all experiments, as it can be readily expressed in E. coli with high yields,[4] while the full E3 ligase would require baculovirus-insect cells expression system.[5] The expression and purification of VBC was performed as described previously by our group[2] and employed directly in all NMR experiments.
For the surface plasmon resonance (SPR) experiments, a VBC complex containing an AviTagTM in the N-terminus of eloB (AviVBC) was purified using the same procedure described for VBC. The modified eloB/eloC expression plasmid was previously developed in-house by Dr. Michael Roy and kindly shared. The AviVBC complex was site-specifically biotinylated in the AviTag using the GST-BirA method previously described by […]
4. Surface plasmon resonance experiments
The SPR experiments were performed with a Biacore T200 instrument (GE Healthcare). All measurements were performed at 20 °C with buffer containing 10 mM HEPES, pH 7.5, 150 mM NaCl, 1 mM TCEP, 0.005% (v/v) Tween® 20 and 2% (v/v) dimethyl sulfoxide (DMSO). Biotinylated AviVBC (~0.5 μM) was immobilised at 22 °C onto a Series S sensor chip SA (GE Heathcare) to levels of approximately 3500-4000 response units […]
Solutions of each spy molecule were prepared in buffer at concentrations based on previous structure-activity relationship studies of VHL ligands (K D expected in the nanomolar range for structures like spy molecules 16 and 22, or in the milimolar range for spy molecules similar to 1 and 9). From this first screen, the binding affinities were roughly estimated using the Biacore T200 evaluation software (GE Healthcare), then measurements were repeated using concentrations above and below the KD obtained in the first round to generate better curves for fitting the data accurately. Contact and dissociation times varied across the different compounds tested, but in […]
dissociated from the surface in less than sixty seconds.
Data analysis was performed using the steady state responses of the double-referenced sensorgrams (raw data subtracted from blank and reference surface injections) obtained for each concentration tested. These responses were plotted against the respective concentrations and the data fitted to a 1: 1 binding model u sing the Biacore T200 evaluation software and the following equation: […]
Where Req is the steady-state response at a given concentration C. Deviations in Req were corrected by adding an ‘offset’ term to the equation. KD is the dissociation constant to be determined and RMAX is the maximum response expected for a given compound according to the equation below:
Where n is the stoichiometry of the interaction ( in this case, n = 1) and RProtein is the immobilization level of protein. MWCompound and MWProtein are the molecular weights of compound and protein, respectively. Sensorgrams and fitting parameters for all spy molecules can be found in section 7.
In general terms: SPR reads the build-up and loss of mass on a sensor chip optically.

Assay [2] has as its target T2, VHL (VBC complex) (Homo sapiens, UniProt P40337).
T2 construct: equimolar complex of pVHL54-213, eloB1-104 and; made in house; host or cells: E. coli
The assay can be described thus: 19F CPMG NMR transverse relaxation rate (R2) and R2 contrast (C2) of spy molecule with and without protein. Type of assay: binding. An excerpt:
Due to the large CSA of fluorine and the significant differences in the fluorine isotropic chemical shift (δF) between the free and bound states, the transverse relaxation rate (R2) is a well-established sensitive parameter to detect ligand binding.[4] Therefore, fluorine NMR experiments including a Carr–Purcell–Meiboom–Gill (CPMG) spin-echo filter[10] before acquisition were employed to monitor ligand binding to VHL by measuring peak intensity, as changes in other NMR parameters, such as chemical shift and peak width, were not as significant. The R2 values of the CF3 peak of each compound in the absence and in the presence of protein were determined by performing multiple ^19F CPMG experiments varying the CPMG filter (Fig. 2a). To quantify the shift in R2 upon binding, the R2 contrast (C2)[11] was determined. Ideally, a good spy molecule should have a large increase in R2 (fast relaxation) when protein is present, resulting in a large assay window for the competition experiments (Fig. 2b).
5. Measurement of the transverse relaxation rates by 19F CPMG NMR
All the NMR experiments were performed in a 500 MHz Bruker AVANCE N MR spectrometer equipped with a CPQCI -F cryoprobe. To measure the transverse relaxation rates (R 2), a solution of each spy molecule at 100 μM was prepared in 50 mM potassium phosphate monobasic (KH2PO4), pH 7.5, 100 mM NaCl, 1 mM TCEP, 2% (v/v) DMSO, 20% D2O and 10 µM trifluoroacetic acid (TFA). For each solution, 19F CPMG experiments […]
Due to the fast relaxation of molecules 21 and 22, these experiments were repeated with shorter CPMG filters (50, 100, 150, 200, 300, 400, 700 and 1000 ms). The fluorine peaks were integrated and plotted against the resp ective CPMG filters. The R 2 relaxation rates were obtained from fitting the data as a n exponential decay (GraphPad Prism 6) according to the equation below: [7]
Where I(t) is the 19F signal intensity or integral, t is the total CPMG filter in seconds, I(0) is the signal intensity when t = 0. To obtain the R2 upon addition of prot ein, all the experiments above were repeated in presence of VBC at 1 µM. Experiments were performed as triplicates and the R 2 contrasts (C2) were obtained according to the equation below: [8]
Where R2Free is the R2 obtained for the spy molecule free in solution and R2Observed is the R2 obtained with the spy molecule in presence of VBC. The raw data, fitting, R2 and C2 values for each spy molecule can be found in section 8.1. For the R2 measurements using molecule 19 at varied concentrations of spy molecule and protein, see section 8.2 . For the R2 measurements using spy molecules 6 and 11 (used to generate figures S 2, S3 and S4) see

In assay [3] the target is T2, VHL (VBC complex). The assay is described as above. In kind it is binding. The source holds these as a separate data set.

T2 sequence (P40337 54-213): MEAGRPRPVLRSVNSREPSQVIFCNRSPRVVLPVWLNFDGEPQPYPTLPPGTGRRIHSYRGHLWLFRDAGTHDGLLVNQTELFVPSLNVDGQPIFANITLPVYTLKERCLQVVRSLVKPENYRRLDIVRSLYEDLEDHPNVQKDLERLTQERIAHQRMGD
T2 sequence (Q15370 1-104 partner limits assumed): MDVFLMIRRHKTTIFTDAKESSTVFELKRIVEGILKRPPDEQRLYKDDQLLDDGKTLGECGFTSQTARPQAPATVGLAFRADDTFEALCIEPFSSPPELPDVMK
T2 sequence (Q15369 17-112 partner limits assumed): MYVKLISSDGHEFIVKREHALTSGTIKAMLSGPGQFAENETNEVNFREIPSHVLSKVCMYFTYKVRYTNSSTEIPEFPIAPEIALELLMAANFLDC
T1 sequence (P40337 54-213): as the sequence (P40337 54-213) above
T1 sequence (Q15370 1-104 partner limits assumed): as the sequence (Q15370 1-104 partner limits assumed) above
T1 sequence (Q15369 17-112 partner limits assumed): as the sequence (Q15369 17-112 partner limits assumed) above

Regarding `CC(=O)N1C[C@H](O)C[C@H]1C(=O)NCc1ccc(-c2scnc2C)c(C(F)(F)F)c1` [Compound 6], the Kd in assay [1] (SPR steady-state fit, supplement section 7, read-out: KD (Biacore T200 fit)) was 878 µM; in assay [1] (SPR, 20 °C, steady-state 1:1 fit, footnote b values fitted because RMAX was not reached experimentally, read-out: K D, SPR), 878 ± 98 µM. Moreover, the R2 in assay [2] (Spy molecule 100 μM + VBC 1 μM) came to 1.760 ± 0.039 s⁻¹; in assay [2] (Spy molecule 100 μM, no protein) it was 1.096 ± 0.020 s⁻¹; in assay [3] (section 8.3: spy molecules at 50 μM in absence of VBC (sub-head prints Spy molecule 100 μM)) it was 1.255 ± 0.043 s⁻¹; in assay [3] (section 8.3: spy molecules at 50 μM in presence of VBC 1 μM (sub-head prints 100 μM)), 1.951 ± 0.062 s⁻¹. The “R2 contrast – C2” value in assay [2] (Spy molecule 100 μM + VBC 1 μM, supplement 8.1) was found to be 37.7 ± 2.6%; in assay [3] (section 8.3: spy molecules at 50 μM, VBC 1 μM) it was 35.7 ± 4.0%.
